Data as given in US20250000874A1, “BACTERIAL METABOLITES AND THEIR USE IN REDUCING INFLAMMATION” (LOYOLA UNIVERSITY OF CHICAGO, priority 2023, published 2025).

Key:
NLRP3 inflammasome = assay: JE on IL-1β production and caspase-1 activation by BMDMs upon NLRP3 activation; type: cell-based, mouse; settings: for IL-1β production upon NLRP3 activation with ATP: 5 mM ATP
Experimental: (§1) FIG. 19. The Effect of JE on IL-1β Production by BMDMs Upon NLRP3 Activation. Macrophages were pretreated with the metabolite JE at a concentration of 50 μM overnight at 37° C., 5% CO2. The following day, macrophages were primed with LPS at 500 ng/ml for 4 hours and then activated by ATP for 1 hour at 37° C., 5% CO2. Another approach is to prime the cells with 10 ng/ml LPS for 4 hours, then pretreat with JE overnight. The following day, macrophages were activated with 5 mM ATP for an hour at 37° C., 5% CO2. Supernatants were collected, and […] was measured using ELISA. Data are presented as mean±SEM (n=6). **p<0.01. One of three experiments is shown.
as §1, with “20.” for “19.”
FIG. 21. The Impact of JE on Caspase-1 Activation After Priming the Cells with LPS. BMDMs were cultured and seeded as described before. Macrophages were first primed with LPS for 4 hours at 37° C. with 5% CO2. After that, they were treated with the metabolite JE for 1 (LPS1ATP), 2 (LPS2ATP), and 3 (LPS3ATP) hours. Then, the cells were exposed to media containing 5 mM ATP for 1 hour at 37° C. with 5% CO2. Finally, the supernatants were collected and the level of IL-1β was measured using ELISA. Data are presented as mean±SEM (n=6). *p<0.05; ***p<0.001. One of two experiments is shown.
Next, we explored how JE inhibits caspase-1 activation as well as IL-1β production. As stated above, NLRP3 activation adopts a two-step dogma: priming with LPS, followed by activation by ATP, nigericin, or MSU crystals. […] To achieve that, JE was used to pretreat BMDMs overnight at 37° C., 5% CO2; the next day, macrophages were primed with LPS for 4 hours, then stimulated with ATP for an hour. I collected the supernatant and measured IL-1β by ELISA.
In an attempt to determine whether JE inhibits the priming or the activation step, BMDMs were stimulated with LPS, then the metabolite JE was used to treat the cells overnight at 37° C., 5% CO2. The following day, macrophages were stimulated with ATP for an hour, then, supernatant was collected to measure IL-1β by ELISA. PBS was used as a control to JE in this experiment. In both conditions, I did a western blot on caspase-1 to elucidate whether JE inhibits caspase-1 activation or not.
It was also evident by the absence of active caspase-1 in the supernatant on western blot analysis (data not shown). To determine whether JE inhibits the activation signal, instead of pretreating the macrophages with JE overnight. BMDMs were treated with the metabolite JE for 1 hour, 2 hours, and 3 hours after priming with LPS for 4 hours; then 5 mM of ATP was.

NF-kB = assay: MQ on translocation of NF-kB (p65) to the nucleus in HCECs, western blot; type: cell-based, human; settings: MQ 50 μM overnight, FLA 100 ng/ml 3 hours
Experimental: Materials and Methods: Human corneal epithelial cells were grown in culture. Cells were then plated in DMEM. The cells cultures were then kept at 37° C. with 5% CO2. Once ready, HCECs were then incubated with MQ at a concentration of 50 uM overnight. […] Samples were treated for 3 hours and then samples were collected. Nuclear and cytoplasmic fractions were obtained using 0.1% NP-40 buffer. Cells were pelleted and the supernatant was discarded. Cells were then treated with 25 μl of NP-40 lysis buffer. Upon addition of the buffer cells were centrifuged for 10 minutes at 3000 rpm at 4° C. The supernatant was collected which is the cytoplasmic fraction and the remaining pellet was the nuclear fraction. The pellet was then washed three times to remove any remaining cytoplasmic fraction.
Both fractions were then treated with 2x SDS loading buffer and the protein was denatured at 100° C. and placed on ice. Proteins were run on a gel at […] until the dye front neared the bottom of the gel. Protein was then dry transferred to a membrane. The membrane was blocked in 5% blocking buffer overnight. The following day the membrane was washed three times with PBS-T and anti-mouse p65-NF-kB rabbit polyclonal antibody was added. […]
The inhibitory effects on the translocation of NF-kB from the cytoplasm to the nucleus following stimulation with FLA was also assessed. […]

Molecule: CC(=O)O[C@@H]1CC[C@H]2[C@H]3CC[C@H]4CC(F)(F)CC[C@]4(C)[C@H]3CC[C@]12C [JE, 3,3-Difluoro-5-alpha-androstan-17-beta-yl acetate]
- IL-β upon activation of NLRP3 inflammasome (NLRP3 inflammasome; JE 50 μM pretreatment overnight, LPS priming 4 hours, ATP 1 hour): completely abolished
- IL-1β production upon NLRP3 activation with ATP (NLRP3 inflammasome; JE for 1 hour after priming with LPS 4 hours): did not have the same effect
- IL-1β production upon NLRP3 activation with ATP (NLRP3 inflammasome; JE for 2 hours after priming with LPS 4 hours): did not have the same effect
- IL-1β production upon NLRP3 activation with ATP (NLRP3 inflammasome; JE for 3 hours after priming with LPS 4 hours): significantly decrease
- active caspase-1 in the supernatant (western blot) (NLRP3 inflammasome; JE pretreatment, LPS priming, ATP): absence

Molecule: Prednicarbate [MQ]
- translocation of NF-kB to the nucleus (NF-kB): inhibited
